ChEMBL document CHEMBL5576054, “Lead compound profiling for small molecule inhibitors of the REV1-CT/RIR Translesion synthesis Protein-Protein interaction” (Bioorg Med Chem, 2024)
≈ marks a conversion by molar mass, not a printed value. Calls of active or inactive are those of the source. The calls are words filed in the database; no cut-off is given here.

Columns and labels:
[1] = Disruption of C-terminal REV-1/FAM-tagged Pol kappa RIR (unknown origin) interaction incubated for 1 hr by FP assay; set-up: species or system Homo sapiens
DNA repair protein REV1 = molecular target: T1, DNA repair protein REV1 (Homo sapiens, UniProt Q9UBZ9); experiment: Binding affinity to C-terminal human REV-1 assessed as dissociation constant incubated for 30 mins by MST assay
T1 sequence (Q9UBZ9 whole entry): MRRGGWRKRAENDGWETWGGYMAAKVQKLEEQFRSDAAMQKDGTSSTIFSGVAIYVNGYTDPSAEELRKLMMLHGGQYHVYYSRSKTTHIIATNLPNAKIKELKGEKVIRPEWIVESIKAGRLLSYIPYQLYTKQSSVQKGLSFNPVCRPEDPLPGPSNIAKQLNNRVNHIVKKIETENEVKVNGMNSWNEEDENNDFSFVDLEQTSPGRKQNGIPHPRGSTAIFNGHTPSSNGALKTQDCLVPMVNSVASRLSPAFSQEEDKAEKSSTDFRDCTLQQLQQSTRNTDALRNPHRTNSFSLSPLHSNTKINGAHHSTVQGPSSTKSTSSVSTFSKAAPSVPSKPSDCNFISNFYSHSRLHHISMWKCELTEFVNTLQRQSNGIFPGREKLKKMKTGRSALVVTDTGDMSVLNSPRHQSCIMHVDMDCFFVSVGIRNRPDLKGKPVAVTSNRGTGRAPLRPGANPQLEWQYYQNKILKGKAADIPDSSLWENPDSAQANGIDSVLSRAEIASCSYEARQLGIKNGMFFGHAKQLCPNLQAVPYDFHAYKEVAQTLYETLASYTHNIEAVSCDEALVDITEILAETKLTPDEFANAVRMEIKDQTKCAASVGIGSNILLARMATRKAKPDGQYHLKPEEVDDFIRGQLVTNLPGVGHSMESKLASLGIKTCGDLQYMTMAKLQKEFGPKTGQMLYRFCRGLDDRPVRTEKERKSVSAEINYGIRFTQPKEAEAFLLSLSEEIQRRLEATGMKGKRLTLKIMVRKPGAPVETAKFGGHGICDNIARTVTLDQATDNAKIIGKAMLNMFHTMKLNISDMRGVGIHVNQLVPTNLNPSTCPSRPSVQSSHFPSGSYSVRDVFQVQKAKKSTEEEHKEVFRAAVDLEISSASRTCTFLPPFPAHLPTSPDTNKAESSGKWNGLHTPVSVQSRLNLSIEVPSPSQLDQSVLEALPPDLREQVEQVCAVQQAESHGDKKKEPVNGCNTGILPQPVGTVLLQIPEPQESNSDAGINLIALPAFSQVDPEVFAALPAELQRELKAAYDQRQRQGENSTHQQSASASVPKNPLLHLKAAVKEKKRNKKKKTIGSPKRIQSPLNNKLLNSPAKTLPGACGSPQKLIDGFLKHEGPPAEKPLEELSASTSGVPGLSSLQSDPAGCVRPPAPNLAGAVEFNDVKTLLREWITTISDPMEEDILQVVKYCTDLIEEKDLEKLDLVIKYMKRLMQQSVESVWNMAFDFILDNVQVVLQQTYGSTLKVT

[2] = Metabolic stability in human liver microsomes assessed as intrinsic clearance at 1 uM incubated upto 60 mins by LC-MS/MS analysis; assay type: ADME, Microsome; conditions: 1 h
[3] = Half life in CD-1 mouse at 1 mg/kg, iv by LC-MS/MS analysis; assay type: ADME, organism-based; conditions: in vivo
[4] = C0 in CD-1 mouse at 1 mg/kg, iv by LC-MS/MS analysis; assay type: ADME, organism-based; conditions: in vivo
[5] = AUClast in CD-1 mouse at 1 mg/kg, iv by LC-MS/MS analysis; assay type: ADME, organism-based; conditions: in vivo
[6] = AUC (infinity) in CD-1 mouse at 1 mg/kg, iv by LC-MS/MS analysis; assay type: ADME, organism-based; conditions: in vivo
[7] = Area under curve extrapolated from the last time point to infinity in CD-1 mouse at 1 mg/kg, iv by LC-MS/MS analysis; assay type: ADME, organism-based; conditions: in vivo
[8] = MRT (infinity) in CD-1 mouse at 1 mg/kg, iv by LC-MS/MS analysis; assay type: ADME, organism-based; conditions: in vivo
[9] = Dose normalized AUClast in CD-1 mouse at 1 mg/kg, iv by LC-MS/MS analysis; assay type: ADME, organism-based; conditions: in vivo
[10] = Volume of distribution at steady state in CD-1 mouse at 1 mg/kg, iv by LC-MS/MS analysis; assay type: ADME, organism-based; conditions: in vivo
[11] = Half life in CD-1 mouse at 100 mg/kg, ip by LC-MS/MS analysis; assay type: ADME, organism-based; conditions: in vivo
[12] = Tmax in CD-1 mouse at 100 mg/kg, ip by LC-MS/MS analysis; assay type: ADME, organism-based; conditions: in vivo
[13] = Cmax in CD-1 mouse at 100 mg/kg, ip by LC-MS/MS analysis; assay type: ADME, organism-based; conditions: in vivo
[14] = AUClast in CD-1 mouse at 100 mg/kg, ip by LC-MS/MS analysis; assay type: ADME, organism-based; conditions: in vivo
[15] = AUC (infinity) in CD-1 mouse at 100 mg/kg, ip by LC-MS/MS analysis; assay type: ADME, organism-based; conditions: in vivo
[16] = Area under curve extrapolated from the last time point to infinity in CD-1 mouse at 100 mg/kg, ip by LC-MS/MS analysis; assay type: ADME, organism-based; conditions: in vivo
[17] = MRT (infinity) in CD-1 mouse at 100 mg/kg, ip by LC-MS/MS analysis; assay type: ADME, organism-based; conditions: in vivo
[18] = Dose normalized AUClast in CD-1 mouse at 100 mg/kg, ip by LC-MS/MS analysis; assay type: ADME, organism-based; conditions: in vivo
[19] = Oral bioavailability in CD-1 mouse at 100 mg/kg by LC-MS/MS analysis; assay type: ADME, organism-based; conditions: in vivo
[20] = Toxicity in BALB/c nude mouse assessed as effect on body weight at 30 to 100 mg/kg, po qd for 7 days; assay type: organism-based; conditions: in vivo, 168 h, dose 30-100 mg/kg, time 7 day
[21] = Toxicity in BALB/c nude mouse assessed as visual signs of toxicity at 30 to 100 mg/kg, po qd for 7 days; assay type: organism-based; conditions: in vivo, 168 h, dose 30-100 mg/kg, time 7 day
[22] = Toxicity in BALB/c nude mouse assessed as general impairment at 30 to 100 mg/kg, po qd for 7 days; assay type: organism-based; conditions: in vivo, 168 h, dose 30-100 mg/kg, time 7 day
[23] = Toxicity in BALB/c nude mouse assessed as decrease in animal weight at 200 mg/kg, po qd measured for 2 days; assay type: organism-based; conditions: in vivo, 48 h, time 2 day
[24] = Toxicity in BALB/c nude mouse assessed as animal death at 200 mg/kg, po qd measured for 3 days; assay type: organism-based; conditions: in vivo, 72 h, time 3 day
[25] = Toxicity in BALB/c nude mouse administered orally once daily for 7 days; conditions: in vivo, route po, time 7 day
SW1271 [26] = experiment: Synergistic inhibition of cell viability in human SW1271 cells at 20 uM incubated for 5 days in presence of Olaparib/Temozolomide by Cell Titer Glo assay; assay type: functional, cell-based; conditions: time 5.0 day
[27] = Solubility of compound in PBS at pH 4; assay type: physicochemical; conditions: buffer
[28] = Solubility of compound in PBS at pH 7.4; assay type: physicochemical
[29] = Metabolic stability in human liver microsomes assessed as half life at 1 uM incubated upto 60 mins by LC-MS/MS analysis; assay type: ADME, Microsome; conditions: 1 h
A549 = experiment: Inhibition of cologenic survival in human A549 cells incubated for 8 to 10 days by crystal violet staining based analysis; assay type: functional, cell-based; conditions: time 8-10 day
MEF [30] = experiment: Inhibition of cologenic survival in mouse MEF cells at 10 uM incubated for 24 hrs followed by fresh media replacement without compound measured after 4 days by crystal violet staining based analysis; assay type: functional, cell-based
MEF [31] = experiment: Synergistic inhibition of cologenic survival in mouse MEF cells at 10 uM incubated for 24 hrs followed by fresh media replacement without compound measured after 4 days in presence of cisplatin by crystal violet staining based analysis; assay type: functional, cell-based
MEF [32] = experiment: Synergistic inhibition of cologenic survival in mouse MEF cells with Rev1-/- at 10 uM incubated for 24 hrs followed by fresh media replacement without compound measured after 4 days in presence of cisplatin by crystal violet staining based analysis; assay type: functional, cell-based
SW1271 [33] = experiment: Synergistic inhibition of cell viability in human SW1271 cells with Rev1-/- at 20 uM incubated for 5 days in presence of Olaparib/Temozolomide by Cell Titer Glo assay; assay type: functional, cell-based; conditions: time 5.0 day
[34] = Clearance in CD-1 mouse at 1 mg/kg, iv by LC-MS/MS analysis; assay type: ADME, organism-based; conditions: in vivo

SMILES	IC50 [1]	Kd (DNA repair protein REV1)	intrinsic clearance (CLint) [2]	AUC(0-t) [5]	AUC(0-inf) [6]	%AUCextra [7]	AUClast/dose [9]	half-life [11]	Tmax [12]	Cmax [13]	AUC(0-t) [14]	AUC(0-inf) [15]	%AUCextra [16]	MRT inf [17]	AUClast/dose [18]	Activity [20]	Activity [21]	Activity [22]	Activity [23]	Activity [24]	other results
CCCc1cc(C(=O)OC)c(NC(=O)C2CCN(C(C)=O)CC2)s1	4100 nM	6.7 µM	18.8 µL/min/mg	37.3 ng·h/mL	38.2 ng·h/mL	2.39%	37.3 ng·h/mL	340 min	15 min	2780 ng/mL	2280 ng·h/mL	2320 ng·h/mL	1.74%	2.82 h	22.8 ng·h/mL	Non-Toxic	Non-Toxic	Non-Toxic	Toxic	Toxic	t1/2 ([3]; mouse, iv, 1 mg/kg): 16.9 min; C0 ([4]; mouse, iv, 1 mg/kg): 200 ng/mL; MRT ([8]; mouse, iv, 1 mg/kg): 13.5 min; Vdss ([10]; mouse, iv, 1 mg/kg): 5.96 L/kg; F [19]: 60.8%; MTD at 168 h [25]: ≤ 100 mg/kg
Nc1ccc(/N=N/c2cccc(F)c2F)c(N)n1	400 nM	21 µM	> 300 µL/min/mg	97 ng·h/mL	97 ng·h/mL	0.77%	96.7 ng·h/mL	269 min	25 min	12500 ng/mL	25300 ng·h/mL	25500 ng·h/mL	0.58%	2.06 h	253 ng·h/mL	Non-Toxic	Non-Toxic	Non-Toxic	Toxic	Toxic	inhibition (SW1271 [26]): Active; solubility [27]: 4.5 µM (≈ 1.12 µg/mL); solubility [28]: 8.5 µM (≈ 2.12 µg/mL); t1/2 [29]: < 2.3 min; inhibition (A549): Active; inhibition (MEF [30]): inactive; inhibition (MEF [31]): Active; inhibition (MEF [32]): inactive; inhibition (SW1271 [33]): inactive; clearance [34]: 177 mL/min/kg; half-life ([3]; CD-1, mouse): 20.3 min; C0 ([4]; CD-1, mouse, read-out: C0): 412 ng/mL; MRT inf ([8]; CD-1, mouse): 15.8 min; Vd ([10]; CD-1, mouse, read-out: Vdss): 2.81 L/kg; MTD at 168 h [25]: ≤ 100 mg/kg
